Measured values published in patent publication US20080280879A1, “SUBSTITUTED HETEROCYCLIC DERIVATIVES AND THEIR PHARMACEUTICAL USE AND COMPOSITIONS” (priority 2007, published 2008).
Values after ≈ are worked out from the molar mass of the structure shown.

Experiments:
Assay type in all cases: cell-based, Staphylococcus aureus
Staph aureus 1095 MRSA = test: MIC, microtiter broth dilution (CLSI M7-A7), Assay 1, Table 12 column A, no serum; conditions: Assay 1, no serum; for MIC: Staphylococcus aureus, MRSA
In short: (§1)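 Testing followed the CLSI M7-A7 dilution standard in microtiter trays, with serum conditions using Mueller-Hinton Broth plus 50% pooled inactivated human serum. Values are the lowest concentrations with no macroscopically visible growth.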

Staph aureus 1146 [1] = test: MIC, microtiter broth dilution (CLSI M7-A7), Assay 1, Table 12 column B, no serum; conditions: for MIC: Staphylococcus aureus, 1146, Staph aureus 1146, Assay 1, no serum; for MIC, column B: Staph aureus 1146, Assay 1, no serum
In short: as §1

Staph aureus 1146 [2] = test: MIC in Mueller-Hinton Broth with 50% pooled inactivated human serum, Assay 1, Table 12; conditions: for MIC: Staphylococcus aureus, 1146, Staph aureus 1146, Assay 1, 50% human serum, read-out: MIC, column C; for MIC, column C: Staph aureus 1146, Assay 1, 50% human serum
In short: as §1

Staph aureus 2811 = test: MIC, microtiter broth dilution (CLSI M7-A7), Assay 1, Table 12 column D, no serum; conditions: for MIC: Staphylococcus aureus, 2811, Staph aureus 2811, Assay 1, no serum; for MIC, column D: Staph aureus 2811, Assay 1, no serum
In short: as §1

Staph aureus 2812 = test: MIC, microtiter broth dilution (CLSI M7-A7), Assay 1, Table 12 column E, no serum; conditions: for MIC: Staphylococcus aureus, 2812, Staph aureus 2812, Assay 1, no serum; for MIC, column E: Staph aureus 2812, Assay 1, no serum
In short: as §1

Row | SMILES | MIC (Staph aureus 1095 MRSA) [µg/mL] | MIC (Staph aureus 1146 [1]) [µg/mL] | MIC (Staph aureus 1146 [2]) [µg/mL] | MIC (Staph aureus 2811) [µg/mL] | MIC (Staph aureus 2812) [µg/mL] | MIC, column A (Staph aureus 1095 MRSA) [µg/mL] | MIC, column B (Staph aureus 1146 [1]) | MIC, column C (Staph aureus 1146 [2]) [µg/mL] | MIC, column D (Staph aureus 2811) | MIC, column E (Staph aureus 2812) [µg/mL]
1 | COc1ccc2nccc(C(O)CC[C@@H]3CCN(C4CC5(CCCCC5)C4)C[C@@H]3C(=O)O)c2c1 (stereo partly drawn) [Example 56, (3R,4R)-4-[3-hydroxy-3-(6-methoxyquinolin-4-yl)propyl]-1-spiro[3.5]non-2-ylpiperidine-3-carboxylic acid] | 2 (≈ 4.29 µM) | 0.5 (≈ 1.07 µM) | 2 (≈ 4.29 µM) | 0.5 (≈ 1.07 µM) | 0.5 (≈ 1.07 µM) |  |  |  |  | 
2 | COc1ccc2nccc([C@@H](O)CC[C@@H]3CCN(C4CC(c5cc(C)ccc5F)C4)C[C@@H]3C(=O)O)c2c1 (stereo partly drawn) [Example 61, (3R,4R)-1-[3-(2-fluoro-5-methylphenyl)cyclobutyl]-4-[(3S)-3-hydroxy-3-(6-methoxyquinolin-4-yl)propyl]piperidine-3-carboxylic acid] | 0.125 (≈ 0.247 µM) | ≤ 0.0625 | 2 (≈ 3.95 µM) | ≤ 0.0625 | ≤ 0.0625 |  |  |  |  | 
3 | COc1ccc2nccc([C@@H](O)CC[C@@H]3CCN(C4CC(c5cc(C(F)(F)F)ccc5F)C4)C[C@@H]3C(=O)O)c2c1 (stereo partly drawn) [Example 62, (3R,4R)-1-{3-[2-fluoro-5-(trifluoromethyl)phenyl]cyclobutyl}-4-[(3S)-3-hydroxy-3-(6-methoxyquinolin-4-yl)propyl]piperidine-3-carboxylic acid] | 4 (≈ 7.14 µM) | 2 (≈ 3.57 µM) | 64 (≈ 114 µM) | 1 (≈ 1.78 µM) | 2 (≈ 3.57 µM) |  |  |  |  | 
4 | COc1ccc2nccc([C@@H](O)CC[C@@H]3CCN(C4CC(c5c(F)cccc5Cl)C4)C[C@@H]3C(=O)O)c2c1 (stereo partly drawn) [Example 63, (3R,4R)-1-[3-(2-chloro-6-fluorophenyl)cyclobutyl]-4-[(3S)-3-hydroxy-3-(6-methoxyquinolin-4-yl)propyl]piperidine-3-carboxylic acid] | 0.125 (≈ 0.237 µM) | ≤ 0.0625 | 2 (≈ 3.79 µM) | ≤ 0.0625 | ≤ 0.0625 |  |  |  |  | 
5 | COc1ccc2nccc([C@@H](O)CC[C@@H]3CCN(C4CC(c5ccc(Cl)cc5F)C4)C[C@@H]3C(=O)O)c2c1 (stereo partly drawn) [Example 65, (3R,4R)-1-[3-(4-chloro-2-fluorophenyl)cyclobutyl]-4-[(3S)-3-hydroxy-3-(6-methoxyquinolin-4-yl)propyl]piperidine-3-carboxylic acid] | 1 (≈ 1.9 µM) | 0.25 (≈ 0.474 µM) | 16 (≈ 30.4 µM) | 0.25 (≈ 0.474 µM) | 1 (≈ 1.9 µM) |  |  |  |  | 
6 | COc1ccc2nccc([C@@H](O)CC[C@@H]3CCN(C4CC(c5c(F)cccc5F)C4C)C[C@@H]3C(=O)O)c2c1 (stereo partly drawn) [Example 66, (3R,4R)-1-[(2,3)-3-(2,6-difluorophenyl)-2-methylcyclobutyl]-4-[(3S)-3-hydroxy-3-(6-methoxyquinolin-4-yl)propyl]piperidine-3-carboxylic acid] |  |  |  |  |  | 1 (≈ 1.91 µM) | 0.125 µg/mL (≈ 0.238 µM) | 4 (≈ 7.62 µM) | 0.125 µg/mL (≈ 0.238 µM) | 0.25 (≈ 0.477 µM)
7 | COc1ccc2nccc([C@@H](O)CC[C@@H]3CCN(C4CC(c5c(F)cccc5F)C4C)C[C@@H]3C(=O)O)c2c1 (stereo partly drawn) [Example 67, (3R,4R)-1-[(2,3)-3-(2,6-difluorophenyl)-2-methylcyclobutyl]-4-[(3S)-3-hydroxy-3-(6-methoxyquinolin-4-yl)propyl]piperidine-3-carboxylic acid] |  |  |  |  |  | 0.125 (≈ 0.238 µM) | <=.0625 μg/ml | 2 (≈ 3.81 µM) | <=.0625 μg/ml | 0.125 (≈ 0.238 µM)
8 | COc1ccc2nccc(C(O)CC[C@@H]3CCN(C4CC(c5ccc(F)cc5)C4)C[C@@H]3C(=O)O)c2c1 (stereo partly drawn) [Example 88, (3R,4R)-1-[3-(4-fluorophenyl)cyclobutyl]-4-[3-hydroxy-3-(6-methoxyquinolin-4-yl)propyl]piperidine-3-carboxylic acid] | 1 (≈ 2.03 µM) | 0.5 (≈ 1.02 µM) | 4 (≈ 8.12 µM) | 0.25 (≈ 0.508 µM) | 0.25 (≈ 0.508 µM) |  |  |  |  | 
9 | COc1ccc2nccc(CCCC3(C(=O)O)CCN(C4CC(c5ccccc5)C4)CC3)c2c1 (stereo not drawn) [Example 93, 4-[3-(6-methoxyquinolin-4-yl)propyl]-1-(3-phenylcyclobutyl)piperidine-4-carboxylic acid] | 2 (≈ 4.36 µM) | 2 (≈ 4.36 µM) | > 64 | 2 (≈ 4.36 µM) | 1 (≈ 2.18 µM) |  |  |  |  | 
10 | COc1ccc2nccc(C(O)CC[C@@H]3CCN(C4CC(O)(c5ccccc5)C4)C[C@@H]3C(=O)O)c2c1 (stereo partly drawn) [Example 94, (3R,4R)-4-[3-hydroxy-3-(6-methoxyquinolin-4-yl)propyl]-1-(3-hydroxy-3-phenylcyclobutyl)piperidine-3-carboxcylic acid] |  |  |  |  |  | >64 | 32 µg/mL (≈ 65.2 µM) | >64 | >64 µg/mL | >64
11 | COc1ccc2nccc(C(O)CC[C@@H]3CCN(C4CCC(c5ccc(Cl)cc5)C4)C[C@@H]3C(=O)O)c2c1 (stereo partly drawn) [Example 97, (3R,4R)-1-[3-(4-chlorophenyl)cyclopentyl]-4-[3-hydroxy-3-(6-methoxyquinolin-4-yl)propyl]piperidine-3-carboxylic acid] | 32 (≈ 61.2 µM) | 2 (≈ 3.82 µM) | > 64 | 8 (≈ 15.3 µM) | 8 (≈ 15.3 µM) |  |  |  |  | 

Now from value to molecule, other results behind:

Row | MIC (Staph aureus 1095 MRSA) [µg/mL] | MIC (Staph aureus 1146 [1]) [µg/mL] | MIC (Staph aureus 1146 [2]) [µg/mL] | MIC (Staph aureus 2811) [µg/mL] | MIC (Staph aureus 2812) [µg/mL] | SMILES | MIC, column A (Staph aureus 1095 MRSA) [µg/mL] | MIC, column B (Staph aureus 1146 [1]) | MIC, column C (Staph aureus 1146 [2]) [µg/mL] | MIC, column D (Staph aureus 2811) | MIC, column E (Staph aureus 2812) [µg/mL]
12 | 0.5 (≈ 0.987 µM) | 0.25 (≈ 0.493 µM) | 8 (≈ 15.8 µM) | 0.25 (≈ 0.493 µM) | 0.25 (≈ 0.493 µM) | COc1ccc2nccc([C@@H](O)CC[C@@H]3CCN(C4CC(c5cccc(F)c5C)C4)C[C@@H]3C(=O)O)c2c1 (stereo partly drawn) [Example 57, (3R,4R)-1-[3-(3-fluoro-2-methylphenyl)cyclobutyl]-4-[(3S)-3-hydroxy-3-(6-methoxyquinolin-4-yl)propyl]piperidine-3-carboxylic acid] |  |  |  |  | 
13 | ≤ 0.0625 | ≤ 0.0625 | 8 (≈ 15.2 µM) | ≤ 0.0625 | ≤ 0.0625 | COc1ccc2nccc([C@@H](O)CC[C@@H]3CCN(C4CC(c5cccc(Cl)c5F)C4)C[C@@H]3C(=O)O)c2c1 (stereo partly drawn) [Example 64, (3R,4R)-1-[3-(3-chloro-2-fluorophenyl)cyclobutyl]-4-[(3S)-3-hydroxy-3-(6-methoxyquinolin-4-yl)propyl]piperidine-3-carboxylic acid] |  |  |  |  | 
14 | 0.25 (≈ 0.459 µM) | ≤ 0.0625 | 4 (≈ 7.34 µM) | ≤ 0.0625 | ≤ 0.0625 | COc1ccc2nccc([C@@H](O)CC[C@@H]3CCN(C4CC(c5c(F)ccc(Cl)c5F)C4)C[C@@H]3C(=O)O)c2c1 (stereo partly drawn) [Example 68, (3R,4R)-1-[3-(3-chloro-2,6-difluorophenyl)cyclobutyl]-4-[(3S)-3-hydroxy-3-(6-methoxyquinolin-4-yl)propyl]piperidine-3-carboxylic acid] |  |  |  |  | 
15 | 0.5 (≈ 0.946 µM) | 0.125 (≈ 0.236 µM) | 2 (≈ 3.78 µM) | 0.125 (≈ 0.236 µM) | 0.25 (≈ 0.473 µM) | COc1ccc2nccc([C@@H](O)CC[C@@H]3CCN(C4CC(c5c(F)cc(F)cc5F)C4)C[C@@H]3C(=O)O)c2c1 (stereo partly drawn) [Example 69, (3R,4R)-4-[(3S)-3-hydroxy-3-(6-methoxyquinolin-4-yl)propyl]-1-[3-(2,4,6-trifluorophenyl)cyclobutyl]piperidine-3-carboxylic acid] |  |  |  |  | 
16 | ≤ 0.0625 | ≤ 0.0625 | 8 (≈ 16.7 µM) | ≤ 0.0625 | ≤ 0.0625 | COc1ccc2ncc(Cl)c(CCCC3(C(=O)O)CCN(C4CC(c5ccccc5)C4)C3)c2c1 (stereo not drawn) [Example 86, 3-[3-(3-chloro-6-methoxyquinolin-4-yl)propyl]-1-(3-phenylcyclobutyl)pyrrolidine-3-carboxylic acid] |  |  |  |  | 
17 | ≤ 0.0625 | ≤ 0.0625 | 8 (≈ 15.5 µM) | ≤ 0.0625 | ≤ 0.0625 | COc1ccc2ncc(Cl)c(CCCC3(C(=O)O)CCN(C4CC(c5c(F)cccc5F)C4)C3)c2c1 (stereo not drawn) [Example 87, 3-[3-(3-chloro-6-methoxyquinolin-4-yl)propyl]-1-[3-(2,6-difluorophenyl)cyclobutyl] pyrrolidine-3-carboxylic acid] |  |  |  |  | 
18 | < 0.0625 | < 0.0625 | 0.5 (≈ 1.02 µM) | < 0.0625 | < 0.0625 | COc1ccc2nccc([C@@H](O)CC[C@@H]3CCN(C4CC(c5ccccc5F)C4)C[C@@H]3C(=O)O)c2c1 (stereo partly drawn) [Example 89, (3R,4R)-1-[3-(2-fluorophenyl)cyclobutyl]-4-[(3S)-3-hydroxy-3-(6-methoxyquinolin-4-yl)propyl]piperidine-3-carboxylic acid] |  |  |  |  | 
19 | < 0.0625 | < 0.0625 | 1 (≈ 2.03 µM) | < 0.0625 | < 0.0625 | COc1ccc2nccc([C@H](O)CC[C@@H]3CCN(C4CC(c5ccccc5F)C4)C[C@@H]3C(=O)O)c2c1 (stereo partly drawn) [Example 90, (3R,4R)-1-[3-(2-fluorophenyl)cyclobutyl]-4-[(3R)-3-hydroxy-3-(6-methoxyquinolin-4-yl)propyl]piperidine-3-carboxylic acid] |  |  |  |  | 
20 | 0.5 (≈ 1.02 µM) | 0.25 (≈ 0.508 µM) | 8 (≈ 16.2 µM) | 0.25 (≈ 0.508 µM) | 0.25 (≈ 0.508 µM) | COc1ccc2nccc([C@H](O)CC[C@@H]3CCN(C4CC(c5cccc(F)c5)C4)C[C@@H]3C(=O)O)c2c1 (stereo partly drawn) [Example 91, (3R,4R)-1-[3-(3-fluorophenyl)cyclobutyl]-4-[(3R)-3-hydroxy-3-(6-methoxyquinolin-4-yl)propyl]piperidine-3-carboxylic acid] |  |  |  |  | 
21 | 0.125 (≈ 0.254 µM) | ≤ 0.0625 | 0.5 (≈ 1.02 µM) | ≤ 0.0625 | ≤ 0.0625 | COc1ccc2nccc([C@@H](O)CC[C@@H]3CCN(C4CC(c5cccc(F)c5)C4)C[C@@H]3C(=O)O)c2c1 (stereo partly drawn) [Example 92, (3R,4R)-1-[3-(3-fluorophenyl)cyclobutyl]-4-[(3S)-3-hydroxy-3-(6-methoxyquinolin-4-yl)propyl]piperidine-3-carboxylic acid] |  |  |  |  | 
